Drawing on the NIST ThermoML archive (doi:10.1021/je3011634), this text covers viscosity and mass density for four compounds.

For the data set the following is noted: 101.33 kPa, Liquid; for viscosity: Capillary tube (Ostwald / Ubbelohde) method; for mass density: Vibrating tube method.

± gives the expanded uncertainty stated by the source.

For the compound `CC(C)CO` [2-methyl-1-propanol], the viscosity (as a rule, the internal friction of a fluid under shear) stood at 4.087 ± 0.1 mPa·s (293.15 K); 2.877 ± 0.1 mPa·s (303.15 K); 2.091 ± 0.1 mPa·s (313.15 K); 1.576 ± 0.1 mPa·s (323.15 K); 1.125 ± 0.1 mPa·s (333.15 K). Further, the mass density (in general, the mass of a sample divided by its volume) (293.15 K) was 801.82 ± 0.24 kg/m3; the mass density (303.15 K) stood at 794.06 ± 0.24 kg/m3; the mass density (313.15 K) is reported as 786.12 ± 0.24 kg/m3; the mass density (323.15 K) turned out to be 777.94 ± 0.24 kg/m3; the mass density (333.15 K) came out at 769.46 ± 0.24 kg/m3.

In the case of `CCCO` [propan-1-ol], the viscosity is, setting by setting: (293.15 K) 2.204 ± 0.1 mPa·s; (303.15 K) 1.513 ± 0.1 mPa·s; (313.15 K) 1.018 ± 0.1 mPa·s; (323.15 K) 0.79 ± 0.1 mPa·s. The mass density is 803.57 ± 0.15 kg/m3 (293.15 K); 795.53 ± 0.15 kg/m3 (303.15 K); 787.35 ± 0.15 kg/m3 (313.15 K); 778.98 ± 0.15 kg/m3 (323.15 K); 770.38 ± 0.16 kg/m3 (333.15 K).

Take `CC(C)O` [propan-2-ol]: the viscosity was determined as 2.362 ± 0.1 mPa·s (293.15 K); 1.762 ± 0.1 mPa·s (303.15 K); 1.2 ± 0.1 mPa·s (313.15 K); 0.938 ± 0.1 mPa·s (323.15 K); 0.604 ± 0.1 mPa·s (333.15 K). The mass density is, setting by setting: (293.15 K) 785.35 ± 0.17 kg/m3; (303.15 K) 776.86 ± 0.17 kg/m3; (313.15 K) 768.07 ± 0.17 kg/m3; (323.15 K) 758.89 ± 0.18 kg/m3; (333.15 K) 749.25 ± 0.18 kg/m3.

In the case of `NCCCO` [3-amino-1-propanol], the viscosity (293.15 K) was 40.46 ± 0.27 mPa·s; the viscosity (303.15 K) amounted to 23.98 ± 0.18 mPa·s; the viscosity (313.15 K) came to 15.31 ± 0.14 mPa·s; the viscosity (323.15 K) came out at 10.22 ± 0.12 mPa·s; the viscosity (333.15 K) turned out to be 6.962 ± 0.11 mPa·s. Besides, the mass density (293.15 K) amounted to 987.65 ± 0.23 kg/m3; the mass density (303.15 K) was determined as 979.65 ± 0.23 kg/m3; the mass density (313.15 K) amounted to 971.61 ± 0.23 kg/m3; the mass density (323.15 K) amounted to 963.52 ± 0.23 kg/m3; the mass density (333.15 K) is 955.38 ± 0.23 kg/m3.
